Assay results as given in publication PMC8786932, “Bicyclic azetidines target acute and chronic stages of Toxoplasma gondii by inhibiting parasite phenylalanyl t-RNA synthetase” (Nature Communications, 2022).
Where “and” joins values, the source holds several entries; their conditions need not be identical. Equal entries are not always repeated. Where two headings read alike, the source gives them in different places.

Tests used:
C. parvum = details: Fig 2A Tg_Pf_Cp EC50s; previously reported values, reference not visible in the shown part; cited from earlier work
[1] = test system: T. gondii RHΔΔ TgPheRS[L497I]; test: Tachyzoite lytic assay, L497I mutant; type: cell-based, Toxoplasma gondii; details: for % Parasite Growth: L497I; for EC50: Toxoplasma gondii
Experimental: In vitro cultures of HFF cells containing mature vacuoles were scraped, passaged through 23 g blunt end needles, and filtered using 3 micron filters. Purified parasites were resuspended in 350 μL of cytomix plus[49] and combined in a BTX 4 mm gap cuvette with 30 μL of PCR amplified templates corresponding to mutations of interest and 10 μg of pSAG1:Cas9-GFP U6:sgTgPheRS^[mut] (in 20 μL, 400 μL total volume, see Supplementary Data 1 for sgRNA sequences) prior to electroporation using a BTX ETM 830 electroporator. Amplified templates for TgPheRS mutations were generated from gBlocks (Integrated DNA Technologies, Coralville, IA, USA) that contain a BclI restriction site that replaces the PAM sequence to protect the repair template from being cut by Cas9. At 16 h post-transfection, transgenic parasites expressing pSAG1:Cas9-GFP were sorted on a Sony SH800 FACS sorter directly into 96-well plates. Single clones containing TgPheRS^[mut] were identified by amplifying a ~500 bp PCR fragment around introduced mutation followed by digestion using BclI (New England Biolabs) BclI sensitive clones were expanded and the locus was Sanger sequenced to verify incorporation of each independent mutation. To generate firefly luciferase (FLuc) expressing strains, freshly harvested parasites were combined with 20 μg of pTUB-FLUC DHFR flox plasmid and 10 μg of pSAG1:Cas9-GFP U6:sgUPRT[50] (in 50 μL cytomix plus) and transformed by electroporation as described above. Parasites were allowed to recover overnight followed by sequential selection with pyrimethamine (1.0 μM) and 5-flurodeoxyuracil (FUDR, 10 μM), as described previously. Stable clones were isolated by limiting dilution and a clone from each genetic background selected based on high luciferase activity (Table 1).
Parasite growth on HFF monolayers was monitored using a 96-well plate-based lytic assay modified from a previously described protocol. […]. Freshly harvested parasites (7.5 × 10^4 /well) were added to each well (in 100uL volume) to reach the final concentration range (10 μM to 0.0005 μM, 200 μL/well, 0.1% DMSO). Plates were incubated for 72 h at 37 °C then culture medium was aspirated and monolayers were fixed with 100% ethanol (ETOH) for 5 min at room temperature (RT). After rinsing with water, wells were stained with 0.1% crystal violet solution for 10 min at RT. Plates were rinsed with water, air dried, and absorption quantified on the Cytation 3 multi-mode imager at 570 nm wavelength. % parasite growth was calculated as 100−[(OD value for infected cultures at each concentration of compound/average OD value for no compound and no parasite infection) × 100]. EC50 values were calculated based on the mean of three biological replicates with each replicate containing two technical replicates.

[2] = test system: N. caninum expressing lacZ; test: Neospora caninum β-galactosidase assay; type: cell-based; details: Neospora caninum
Experimental: β-galactosidase assays were conducted using tissue culture grade 96-well plates (TPP) containing confluent monolayers of HFF cells. A 10-point compound dilution series (2-fold) for each compound was generated as described above (2X concentration, 0.1% final DMSO). Growth of the N. caninum strain expressing lacZ was monitoring using a β-galactosidase (β-gal) assay as described in[21] with the following modifications. N. caninum lacZ expressing parasites (1 × 10^3) were added (in 100 μL volume) into 96-well plates containing HFF monolayers to reach final compound concentration (5.0 μM to 0.002 μM in 200 μL total volume). Plates were incubated at 37 °C, 5% CO2 for 72 h prior to completing β-gal assay as previously described[23],[27],[51]. Briefly, parasite containing monolayers were lysed with 1.0% Triton X-100 and β-gal activity determined by adding 1 mM chlorophenolred-β-D-galactopyranoside followed by monitoring absorption at 570 nm on a Cytation 3 multi-mode imager (BioTek), as described.

in vivo = test: in vivo; parameters: species or system mouse; Plasma free: unit not given here; details: for Kp / Cmax / MRT / Tmax / AUC(0-t) / AUC(0-inf) / CL/F / half-life: female, CD1, mouse, in vivo; for Cmax / MRT / Tmax / AUC(0-t) / AUC(0-inf) / CL/F / half-life: po, 10 mg/kg/day; for Cmax / MRT / Tmax / AUC(0-t) / AUC(0-inf) / CL/F / half-life / Vd: mouse, 10 mg/kg/day p.o.; for AUC(0-t): read-out: AUC0–24
Experimental: […]. All mice were fed prior to dosing. After dosing, 200 uL of blood was collected at predetermined time points (pre, 1, 3, 7, 24 h). Blood samples were processed for plasma by centrifugation at approximately 4 °C, 4,500 g for 15 min within […]. Plasma samples were stored in polypropylene tubes, quick frozen over dry ice and kept at −70 ± 10 °C until LC/MS/MS analysis. Plasma concentration versus time data was analyzed by non-compartmental approaches using the Phoenix WinNonlin 6.3 software program. Brain tissue samples were taken at day 1, 4, and 8. Tissue samples were processed by centrifugation at approximately 10 °C, 17,000 g for 30 min within 30 min of collection.

COc1ccc(NC(=O)N2CCCCN3[C@H](CO)[C@H](c4ccc(C#Cc5ccccc5)cc4)[C@@H]3C2)cc1 [BRD3444]
EC50 (C. parvum): 15 nM

COc1ccc(NC(=O)N2CCCCN3[C@H](CN(C)C)[C@H](c4ccc(C#Cc5ccccc5)cc4)[C@@H]3C2)cc1 [BRD7929]
% Parasite Growth ([1]; 0.00152416 uM): 80.35% and 85.68% and 82.9%
% Parasite Growth ([1]; 0.00457247 uM): 85.9% and 86.11% and 77.47%
% Parasite Growth ([1]; 0.01371742 uM): 84.76% and 87.14% and 84.02%
% Parasite Growth ([1]; 0.04115226 uM): 84.55% and 85.22% and 84.57%
% Parasite Growth ([1]; 0.12345679 uM): 86.89% and 87% and 83.23%
% Parasite Growth ([1]; 0.37037037 uM): 70.95% and 85.33% and 85.39%
% Parasite Growth ([1]; 1.11111111 uM): 77.92% and 85.54% and 61.12%
% Parasite Growth ([1]; 3.33333333 uM): 63.14%
% Parasite Growth ([1]; 10 uM): 57.07% and 70.68% and 64.5%
EC50 ([1]; read-out: EC50 (growth restriction)): 2310 nM
EC50 ([1]; read-out: EC50, L497I): 1170 nM
EC50 ([2]; Table S3, 72 h, lacZ, read-out: N. caninum EC50): 42 nM
EC50 ([2]; read-out: N. caninum (EC50, Fig S2 source data)): 42.4 nM
free concentration in plasma vs EC50 (in vivo; 10 mg/kg p.o. daily, 8 days, unbound): remained below the EC50 for most of the duration
Plasma free (in vivo; 10 mg/kg p.o. daily, mean, time 1:00:00): 7.292
Brain free (in vivo; 10 mg/kg p.o. daily, mean, time 24:00:00): 24.8595
Kp (in vivo; brain/plasma, Day 1, read-out: Kp (Cb/Cp)): 169
Kp (in vivo; brain/plasma, Day 4, read-out: Kp (Cb/Cp)): 211
Kp (in vivo; brain/plasma, Day 8, read-out: Kp (Cb/Cp)): 577
Cmax (in vivo; Day 1): 153 ng/mL
MRT (in vivo; Day 1): 13.1 h
Tmax (in vivo; Day 1): 18.3 h
AUC(0-t) (in vivo; Day 1): 3190 ng·h/mL
AUC(0-inf) (in vivo; Day 4): 27700 ng·h/mL
CL/F (in vivo; Day 4): 7.1 mL/min/kg
Cmax (in vivo; Day 4): 330 ng/mL
MRT (in vivo; Day 4): 11.7 h
Tmax (in vivo; Day 4): 4.3 h
half-life (in vivo; Day 4): 64.6 h
AUC(0-t) (in vivo; Day 4): 6360 ng·h/mL
AUC(0-inf) (in vivo; Day 8): 20000 ng·h/mL
CL/F (in vivo; Day 8): 10 mL/min/kg
Cmax (in vivo; Day 8): 207 ng/mL
MRT (in vivo; Day 8): 12 h
Tmax (in vivo; Day 8): 5 h
half-life (in vivo; Day 8): 81.3 h
AUC(0-t) (in vivo; Day 8): 4390 ng·h/mL
Kp (in vivo; unbound brain/plasma, Day 1, read-out: Kpu,u (Cb/Cp)): 2.1
Kp (in vivo; unbound brain/plasma, Day 4, read-out: Kpu,u (Cb/Cp)): 2.6
Kp (in vivo; unbound brain/plasma, Day 8, read-out: Kpu,u (Cb/Cp)): 7.2
Kp (in vivo; read-out: Kp u,u, concentration in brain vs. plasma): 2 to 7
Vd (in vivo; Day 4): 32 L/kg
Vd (in vivo; Day 8): 62 L/kg
Plasma free (in vivo; time 3:00:00): 9.26
Plasma free (in vivo; time 7:00:00): 10.41
Plasma free (in vivo; time 24:00:00): 11.33
Plasma free (in vivo; time 72:00:00): 12.09
Plasma free (in vivo; time 73:00:00): 19.13
Plasma free (in vivo; time 75:00:00): 25.02
Plasma free (in vivo; time 79:00:00): 22.5
Brain free (in vivo; time 96:00:00): 44.7005
Plasma free (in vivo; time 96:00:00): 17.52
Plasma free (in vivo; time 168:00:00): 12.4
Plasma free (in vivo; time 169:00:00): 14.08
Plasma free (in vivo; time 171:00:00): 14.92
Plasma free (in vivo; time 175:00:00): 15.38
Brain free (in vivo; time 192:00:00): 77.3745
Plasma free (in vivo; time 192:00:00): 12.86
